US20200206198A1, “CFTR CHANNEL ACTIVATOR FOR USE IN THE TREATMENT AND/OR PREVENTION OF GLUTEN SENSITIVITY CONDITIONS” (priority 2017, published 2020)

Tests used:
Caco-2 cells = assay: P31-43-induced epithelial stress markers in Caco-2 cells (immunoblot); format: cell-based, human
Protocol: Human colon adenocarcinoma-derived Caco-2 and T84 cells were obtained from the ATCC. Cells were maintained in T25 flask in Modified Eagle Medium (MEM) for Caco-2, or Ham's F12+DMEM (1:1) for T84, supplemented with 10% fetal bovine serum (FBS), 2 mM Glutamine+1% Non Essential Amino Acids (NEAA) and the antibiotics penicillin\streptomycin (100 units/ml) (all reagents from Lonza) (Luciani, A., et al. 2010. Cells were grown in Transwells (Corning, 3470 or 3460) under the normal condition (Luciani, A., et al. 2012). Briefly, 8×10^4 or 5×10^5 cells were seeded in 6.5-mm diameter or 12-mm diameter, respectively, and grown until the RT reached 800 to 1,200 Ω·cm2. Transwells with a pore size of 0.4 μm were used. Medium in both the apical and basolateral chambers was changed every other day. Cells were treated with 20 μg/ml of either α-gliadin peptide P31-43 or […]-69 or scrambled PGAV or modified P31-43 either biotin-tagged or not, for different time point (from 1 h short challenge up to 24 h). Cells were also treated with 50 or 100 μg/ml of […]-68 or PGAV peptides for 3 h. Caco-2 or T84 cells were also treated with: CFTR potentiators VX-770 (10 μM) or VX-532 (20 μM) (Selleck chemicals) or Genistein (10 μM) (Sigma-Aldrich) or in presence or absence of CFTR inhibitor172 (CFTRinh172, 20 μM) or 3-methyl-adenine (3-MA, 20 μM) (Calbiochem), Z-DON (20 nM, Zedira) or BAPTA-AM (10 μM, Calbiochem). The whole lysate or membrane fraction proteins of cell lines and mice intestine homogenates were obtained from treated and untreated cells or mice as described. The equal amount of protein were resolved by SDS-PAGE gel and blotted with antibodies against: SQSTM1, (Sigma Aldrich, 108k4767) 1:1000, PPARγ (Santa Cruz Biotechnology, sc7273) 1:500, BECN1 (Abcam, ab58878) 1:1000, CFTR clone M3A7 (Abcam, ab4067) 1:500, phospho-ERK1/2 (php42/44, Cell Signaling Technology, #91101) 1:1000, UVRAG (Santa Cruz Biotechnology sc8215) 1:1000, NHERF-1 (BD, 611161) 1:1000, EZRIN (BD, 610603) 1:1000, hVps34 (SigmaV9764) 1:300, biotin (Abcam, ab1227) 1:2000, PKAr2a (BD, 610625) 1:500, Ubiquitin (Cell Signaling clone P4D1, #3936) 1:1000, CHIP (Calbiochem PC711) 1:500, Caspase-1 p10 (M-20) (Santa Cruz Biotechnology, sc-514) 1:200, NLRP3 (Abcam, ab4207), 1:500, IDO1 (monoclonal; cv152) 1:1000^[80], used as primary antibodies. Normalization was performed by probing the membrane with anti-β-actin (Cell Signaling, #4970) 1:1000, anti-Gapdh (Sigma-Aldrich, G8795) 1:1000 and anti-flottilin (Abcam ab15148) 1:1000 antibodies. Immunoprecipitations of endogenous proteins were performed on 500 μg of lysates from Caco-2 cells. The proteins were incubated for 12-18 h at 4° C. with 10 ug\ml of specific antibody followed by the addition of Protein A/G-agarose beads for 4 h at 4° C. The beads were then washed three times with lysis buffer and Laemmli's sample buffer was added to the samples. The membranes were then blotted with: CFTR clone CF3 (Abcam, ab2784) 1:1000, TG2 (clone CUB7402; NeoMarkers) 1:1000, CHIP (Calbiochem PC711) 1:500, Ubiquitin (Cell Signaling clone P4D1 3936), isopeptide (Abcam 422) 1:1000, PKAR2 (BD 610625) 1:500. FIG. 5: a, Immunoprecipitation of TG2 protein 15 in Caco-2 cells challenged with […]-68, PGAV or P31-43 and blotted with HRP-streptavidin. b, Immunoprecipitation of CFTR protein in Caco-2 cells challenged with P31-43 in the presence of absence of the TG2 inhibitor ZDON or TG2 RNA silencing and 20 blotted with anti-isopeptide glutamime-lysine and anti-TG2 antibodies. c, Recombinant TG2 and/or NBD1 incubated in vitro with P31-43 and solved in native page in the presence or absence of Ca2+. d, Immunoprecipitation of CFTR protein and immunblot with anti-CFTR antibodies or anti-TG2 antibodies. e, Immunoprecipitation of CFTR protein and immunoblot with anti-TG2 or anti-CFTR antibodies; effects of ZDON and BAPTA-AM. f, In situ detection of TG2 activity in Caco-2 cells pulsed with Ca2+ in the presence or absence of VX-770 or Z-DON. […]

CFTR = molecular target: T1, CFTR (Homo sapiens, UniProt P13569); assay: Co-immunoprecipitation of biotinylated peptides with CFTR in Caco-2 cells; format: cell-based
T1 construct: Immunoprecipitations of endogenous proteins were performed on 500 μg of lysates from Caco-2 cells; host or cells: Caco-2, T84
T1 sequence (P13569 whole entry): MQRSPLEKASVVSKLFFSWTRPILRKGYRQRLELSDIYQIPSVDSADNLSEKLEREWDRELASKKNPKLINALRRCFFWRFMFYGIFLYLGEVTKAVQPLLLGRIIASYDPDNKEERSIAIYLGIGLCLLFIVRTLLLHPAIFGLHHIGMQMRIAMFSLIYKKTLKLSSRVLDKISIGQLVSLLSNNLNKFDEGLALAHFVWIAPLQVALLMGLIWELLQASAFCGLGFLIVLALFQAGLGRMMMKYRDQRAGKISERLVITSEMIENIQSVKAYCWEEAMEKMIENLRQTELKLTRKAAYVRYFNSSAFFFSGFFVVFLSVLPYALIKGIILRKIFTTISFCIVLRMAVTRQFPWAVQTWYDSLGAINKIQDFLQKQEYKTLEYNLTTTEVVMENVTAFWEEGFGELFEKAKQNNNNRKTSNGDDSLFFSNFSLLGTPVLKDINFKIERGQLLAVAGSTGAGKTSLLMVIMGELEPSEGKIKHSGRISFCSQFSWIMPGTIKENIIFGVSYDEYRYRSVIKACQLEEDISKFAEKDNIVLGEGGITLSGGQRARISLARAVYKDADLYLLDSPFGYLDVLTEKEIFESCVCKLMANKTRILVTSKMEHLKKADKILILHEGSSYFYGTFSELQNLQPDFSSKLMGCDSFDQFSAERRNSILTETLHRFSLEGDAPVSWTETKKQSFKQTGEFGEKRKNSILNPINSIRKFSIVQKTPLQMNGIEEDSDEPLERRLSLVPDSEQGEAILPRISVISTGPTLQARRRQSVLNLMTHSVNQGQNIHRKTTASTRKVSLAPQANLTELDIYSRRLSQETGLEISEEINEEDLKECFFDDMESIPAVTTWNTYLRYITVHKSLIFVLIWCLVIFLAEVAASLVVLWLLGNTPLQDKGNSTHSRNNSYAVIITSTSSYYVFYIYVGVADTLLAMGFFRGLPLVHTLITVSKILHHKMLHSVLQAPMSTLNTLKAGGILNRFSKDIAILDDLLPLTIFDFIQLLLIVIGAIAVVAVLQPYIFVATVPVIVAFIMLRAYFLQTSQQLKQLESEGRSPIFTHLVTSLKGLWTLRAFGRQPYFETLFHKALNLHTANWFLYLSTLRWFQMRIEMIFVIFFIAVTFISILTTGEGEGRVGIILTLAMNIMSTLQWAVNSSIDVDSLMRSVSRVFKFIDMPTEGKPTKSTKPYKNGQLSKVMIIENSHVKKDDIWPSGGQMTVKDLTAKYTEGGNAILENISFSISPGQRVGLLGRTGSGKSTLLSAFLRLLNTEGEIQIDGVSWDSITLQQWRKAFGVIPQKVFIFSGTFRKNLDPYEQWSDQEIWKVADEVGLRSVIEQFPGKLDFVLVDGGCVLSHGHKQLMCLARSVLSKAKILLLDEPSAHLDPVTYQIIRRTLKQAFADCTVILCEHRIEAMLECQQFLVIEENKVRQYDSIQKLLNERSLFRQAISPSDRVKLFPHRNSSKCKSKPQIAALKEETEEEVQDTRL
Protocol: Human colon adenocarcinoma-derived Caco-2 and T84 cells were obtained from the ATCC. Cells were maintained in T25 flask in Modified Eagle Medium (MEM) for Caco-2, or Ham's F12+DMEM (1:1) for T84, supplemented with 10% fetal bovine serum (FBS), 2 mM Glutamine+1% Non Essential Amino Acids (NEAA) and the antibiotics penicillin\streptomycin (100 units/ml) (all reagents from Lonza) (Luciani, A., et al. 2010. Cells were grown in Transwells (Corning, 3470 or 3460) under the normal condition (Luciani, A., et al. 2012). Briefly, 8×10^4 or 5×10^5 cells were seeded in 6.5-mm diameter or 12-mm diameter, respectively, and grown until the RT reached 800 to 1,200 Ω·cm2. Transwells with a pore size of 0.4 μm were used. Medium in both the apical and basolateral chambers was changed every other day. […] Cells were also treated with 50 or 100 μg/ml of P57-68 or PGAV peptides for 3 h. Caco-2 or T84 cells were also treated with: CFTR potentiators VX-770 (10 μM) or VX-532 (20 μM) (Selleck chemicals) or Genistein (10 μM) (Sigma-Aldrich) or in presence or absence of CFTR inhibitor172 (CFTRinh172, 20 μM) or 3-methyl-adenine (3-MA, 20 μM) (Calbiochem), Z-DON (20 nM, Zedira) or BAPTA-AM (10 μM, Calbiochem).
For detection of complex with biotnylated-P31-43 or immune-complex of glutamime-lysine bonds, the beads were resolved in non-reducing and non-denaturating conditions, and then blotted with Streptavidin-HRP (Sigma 52438) 1:3000 or anti-biotin (Abcam ab2103) 1:2500 and anti-isopeptide (Abcam 422) 1:1000.
The separation of endosomal fractions was performed as described^9 from treated and untreated cells. Protein of endosomal fraction were resolved by SDS-Page and blotted with primary antibodies against Rab-5(Abcam 18211) 1:500, Rab-7(Abcam 77993) 1:500, EEA-1 (Abcam 2900) 1:500, TG2 or CFTR. EEA-1 was used as early endosome marker. For detection of complex with biotnylated-P31-43, the beads were resolved in non-reducing and non-denaturating conditions, and then blotted with Streptavidin-HRP (Sigma S2438) 1:3000 or anti-biotin (Abcam ab2103) 1:2500.

| Compound | TG2-mediated cross-linking of PKAr2a (Caco-2 cells) | abundance of phosphorylated PKA protein (Caco-2 cells) | presence in CFTR immunoprecipitates from early endosomal protein fractions (CFTR) | interaction (co-immunoprecipitation) with CFTR (CFTR; 1 h with biotinylated peptides) | co-immunoprecipitation with CFTR in clathrin+ EEA1− plasma membrane protein fractions (CFTR; after 5 min incubation) | effect on P31-43-induced PKAr2a cross-linking and phospho-PKA decrease (Caco-2 cells) | protection from P31-43-induced downregulation of PPARγ (Caco-2 cells) | protection from P31-43-induced phosphorylation of ERK-1/2 (Caco-2 cells) | protection from P31-43-induced upregulation of HSP70 expression (Caco-2 cells) | effect on co-immunoprecipitation between P31-43 and CFTR (CFTR) |
| --- | --- | --- | --- | --- | --- | --- | --- | --- | --- | --- |
| α-gliadin peptide LGQQQPFPPQQPY (SEQ ID 1), induces an enterocyte stress response (P31-43 sequence of alpha-gliadin) | stimulated TG2-mediated cross-linking | decrease in the abundance of phosphorylated PKA protein | revealed the presence of biotinylated P31-43 | co-immunoprecipitated with CFTR | co-immunoprecipitated | – | – | – | – | – |
| CC(C)(C)c1cc(C(C)(C)C)c(NC(=O)c2c[nH]c3ccccc3c2=O)cc1O [VX-770, N-(2,4-di-tert-butyl-5-hydroxyphenyl)-4-oxo-1,4-dihydroquinoline-3-carboxamide] | – | – | – | – | – | counteracted all these TG2-mediated effects of P31-43 | protected | protected | protected | prevented the co-immunoprecipitation between P31-43 and CFTR |
